Test results: PubChem BioAssay AID1963986 (Molecular Pharmacology Branch, DTP, NCI, 2024)
Blank lines part the entries; values can stand above or below the compound they belong to.

Tested on: 171881-019-R-J1-PDC tumor spheroid viability
Test: Anticancer human tumor 171881-019-R-J1-PDC patient-derived invasive breast carcinoma cell line growth inhibition [PI3K]
Settings: spheroids with HUVEC and MSC; for IC50: curve of first compound; for viability, T/C: stronger effect = lower value
Procedure, shortened: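 High-throughput combination screen: PI3K inhibitors crossed with targeted small molecules on complex spheroids of tumor cells, HUVEC and MSCs at 37 degrees C, 5% CO2. Top concentration was at or near clinical Cmax (otherwise 10 microM), with half-log decrements.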

[1] = second compound 0.0316 µM, first compound 0.000316 µM
[2] = second compound 0.0316 µM, first compound 0.001 µM
[3] = second compound 0.0316 µM, first compound 0.00316 µM
[4] = second compound 0.0316 µM, first compound 0.01 µM
[5] = second compound 0.0316 µM, first compound 0.0316 µM
[6] = second compound 0.0316 µM, first compound 0.1 µM
[7] = second compound 0.1 µM, first compound 0.000316 µM
[8] = second compound 0.1 µM, first compound 0.001 µM
[9] = second compound 0.1 µM, first compound 0.00316 µM
[10] = second compound 0.1 µM, first compound 0.01 µM
[11] = second compound 0.1 µM, first compound 0.0316 µM
[12] = second compound 0.1 µM, first compound 0.1 µM
[13] = second compound 0.316 µM, first compound 0.000316 µM
[14] = second compound 0.316 µM, first compound 0.001 µM
[15] = second compound 0.316 µM, first compound 0.00316 µM
[16] = second compound 0.316 µM, first compound 0.01 µM
[17] = second compound 0.316 µM, first compound 0.0316 µM
[18] = second compound 0.316 µM, first compound 0.1 µM
[19] = second compound 1 µM, first compound 0.000316 µM
[20] = second compound 1 µM, first compound 0.001 µM
[21] = second compound 1 µM, first compound 0.00316 µM
[22] = second compound 1 µM, first compound 0.01 µM
[23] = second compound 1 µM, first compound 0.0316 µM
[24] = second compound 1 µM, first compound 0.1 µM
[25] = second compound 0.00316 µM, first compound 0.0316 µM
[26] = second compound 0.00316 µM, first compound 0.1 µM
[27] = second compound 0.01 µM, first compound 0.0316 µM
[28] = second compound 0.01 µM, first compound 0.1 µM
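Further: spheroids exposed to compound for 7 days before viability read.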
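Wherever viability, T/C is given: 100% = DMSO vehicle-treated spheroids.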

IC50 (second compound 0.0316 µM): > 100 nM | IC50 (second compound 0.1 µM): > 100 nM | IC50 (second compound 0.316 µM): > 100 nM | IC50 (second compound 1 µM): < 0.316 nM | IC50 (second compound 3.16 µM): < 0.316 nM | IC50 (second compound 10 µM): < 0.316 nM
SMILES: Cn1ncnc1[C@H]1c2n[nH]c(=O)c3cc(F)cc(c23)N[C@@H]1c1ccc(F)cc1 + Cc1nc(NC(=O)N2CCCC2C(N)=O)sc1-c1ccnc(C(C)(C)C(F)(F)F)c1
viability, T/C [1]: 96.5% | viability, T/C [2]: 91% | viability, T/C [3]: 84.8% | viability, T/C [4]: 88.8% | viability, T/C [5]: 86.3% | viability, T/C [6]: 79.8% | viability, T/C [7]: 86.7% | viability, T/C [8]: 65.1% | viability, T/C [9]: 76.4% | viability, T/C [10]: 73.1% | viability, T/C [11]: 74.1% | viability, T/C [12]: 66.6% | viability, T/C [13]: 50.2% | viability, T/C [14]: 56.3% | viability, T/C [15]: 51.6% | viability, T/C [16]: 56.4% | viability, T/C [17]: 55% | viability, T/C [18]: 46.6% | viability, T/C [19]: 32.8% | viability, T/C [20]: 32.8% | viability, T/C [21]: 29.4% | viability, T/C [22]: 31.6% | viability, T/C [23]: 29.6% | viability, T/C [24]: 27.4% | viability, T/C (second compound 3.16 µM, first compound 0.000316 µM): 13.4% | viability, T/C (second compound 3.16 µM, first compound 0.001 µM): 14% | viability, T/C (second compound 3.16 µM, first compound 0.00316 µM): 12.8% | viability, T/C (second compound 3.16 µM, first compound 0.01 µM): 13.4% | viability, T/C (second compound 3.16 µM, first compound 0.0316 µM): 13.3% | viability, T/C (second compound 3.16 µM, first compound 0.1 µM): 12.1% | viability, T/C (second compound 10 µM, first compound 0.000316 µM): 3.72% | viability, T/C (second compound 10 µM, first compound 0.001 µM): 3.81% | viability, T/C (second compound 10 µM, first compound 0.00316 µM): 4.27% | viability, T/C (second compound 10 µM, first compound 0.01 µM): 3.81% | viability, T/C (second compound 10 µM, first compound 0.0316 µM): 3.35% | viability, T/C (second compound 10 µM, first compound 0.1 µM): 2.96%

IC50 (second compound 0.00316 µM): 61.3 nM | IC50 (second compound 0.01 µM): < 31.6 nM | IC50 (second compound 0.0316 µM): < 31.6 nM | IC50 (second compound 0.1 µM): < 31.6 nM | IC50 (second compound 0.316 µM): < 31.6 nM | IC50 (second compound 1 µM): < 31.6 nM
SMILES: C#Cc1c(F)ccc2cc(O)cc(-c3ncc4c(N5CC6CCC(C5)N6)nc(OCC56CCCN5CC(F)C6)nc4c3F)c12 (stereo unspecified) + COc1c(OCCCN2CCOCC2)ccc2c3n(c(=NC(=O)c4cnc(N)nc4)nc12)CCN3
viability, T/C [25]: 53.6% | viability, T/C [26]: 48.2% | viability, T/C (second compound 0.00316 µM, first compound 0.316 µM): 30% | viability, T/C (second compound 0.00316 µM, first compound 1 µM): 20.7% | viability, T/C (second compound 0.00316 µM, first compound 3.16 µM): 15.8% | viability, T/C (second compound 0.00316 µM, first compound 10 µM): 12.8% | viability, T/C [27]: 38.2% | viability, T/C [28]: 31.8% | viability, T/C (second compound 0.01 µM, first compound 0.316 µM): 20.4% | viability, T/C (second compound 0.01 µM, first compound 1 µM): 15.1% | viability, T/C (second compound 0.01 µM, first compound 3.16 µM): 10.3% | viability, T/C (second compound 0.01 µM, first compound 10 µM): 9.69% | viability, T/C [5]: 18.9% | viability, T/C [6]: 14.8% | viability, T/C (second compound 0.0316 µM, first compound 0.316 µM): 10% | viability, T/C (second compound 0.0316 µM, first compound 1 µM): 6.62% | viability, T/C (second compound 0.0316 µM, first compound 3.16 µM): 5.52% | viability, T/C (second compound 0.0316 µM, first compound 10 µM): 4.3% | viability, T/C [11]: 6.23% | viability, T/C [12]: 4.84% | viability, T/C (second compound 0.1 µM, first compound 0.316 µM): 3.8% | viability, T/C (second compound 0.1 µM, first compound 1 µM): 3.03% | viability, T/C (second compound 0.1 µM, first compound 3.16 µM): 2.87% | viability, T/C (second compound 0.1 µM, first compound 10 µM): 1.74% | viability, T/C [17]: 1.68% | viability, T/C [18]: 1.75% | viability, T/C (second compound 0.316 µM, first compound 0.316 µM): 1.34% | viability, T/C (second compound 0.316 µM, first compound 1 µM): 1.08% | viability, T/C (second compound 0.316 µM, first compound 3.16 µM): 0.99% | viability, T/C (second compound 0.316 µM, first compound 10 µM): 0.17% | viability, T/C [23]: 0.8% | viability, T/C [24]: 0.83% | viability, T/C (second compound 1 µM, first compound 0.316 µM): 0.78% | viability, T/C (second compound 1 µM, first compound 1 µM): 0.83% | viability, T/C (second compound 1 µM, first compound 3.16 µM): 0.68% | viability, T/C (second compound 1 µM, first compound 10 µM): 0.29%

IC50 (second compound 0.00316 µM): 9.16 nM | IC50 (second compound 0.01 µM): 4.01 nM | IC50 (second compound 0.0316 µM): 1.36 nM | IC50 (second compound 0.1 µM): < 0.316 nM | IC50 (second compound 0.316 µM): < 0.316 nM | IC50 (second compound 1 µM): < 0.316 nM
SMILES: CC(C)n1nc(-c2ccc3oc(N)nc3c2)c2c(N)ncnc21 + CC(Nc1ccc2c(c1)OCCn1cc(N3C(=O)OCC3C(F)F)nc1-2)C(N)=O
viability, T/C (second compound 0.00316 µM, first compound 0.000316 µM): 80.2% | viability, T/C (second compound 0.00316 µM, first compound 0.001 µM): 76.2% | viability, T/C (second compound 0.00316 µM, first compound 0.00316 µM): 69.5% | viability, T/C (second compound 0.00316 µM, first compound 0.01 µM): 49.4% | viability, T/C [25]: 17.4% | viability, T/C [26]: 4.49% | viability, T/C (second compound 0.01 µM, first compound 0.000316 µM): 71.7% | viability, T/C (second compound 0.01 µM, first compound 0.001 µM): 69.9% | viability, T/C (second compound 0.01 µM, first compound 0.00316 µM): 49.7% | viability, T/C (second compound 0.01 µM, first compound 0.01 µM): 38.5% | viability, T/C [27]: 12.6% | viability, T/C [28]: 4.27% | viability, T/C [1]: 58.5% | viability, T/C [2]: 50.9% | viability, T/C [3]: 42.9% | viability, T/C [4]: 25.3% | viability, T/C [5]: 8.97% | viability, T/C [6]: 3.7% | viability, T/C [7]: 43.2% | viability, T/C [8]: 38.6% | viability, T/C [9]: 28.8% | viability, T/C [10]: 13.3% | viability, T/C [11]: 6.55% | viability, T/C [12]: 3.2% | viability, T/C [13]: 26.6% | viability, T/C [14]: 25.2% | viability, T/C [15]: 17.7% | viability, T/C [16]: 8.83% | viability, T/C [17]: 4.95% | viability, T/C [18]: 2.96% | viability, T/C [19]: 18.8% | viability, T/C [20]: 19.5% | viability, T/C [21]: 12.8% | viability, T/C [22]: 6.3% | viability, T/C [23]: 4.24% | viability, T/C [24]: 2.61%
